Among the data in ChEMBL document CHEMBL1159335, “Structures of new cyclic diarylheptanoids and inhibitors of nitric oxide production from Japanese folk medicine Acer nikoense” (J Nat Prod, 2003) are inhibition, Activity and IC50 values, retold here.

The subject of data set [1] is Macrophage. Put plainly: Inhibition of LPS-induced NO production in ddY mouse peritoneal macrophages at 3 uM by Griess reagent method. It is filed as functional. (In general: Griess reagent forms a coloured azo dye with nitrite.)
Data set [2] deals with Macrophage. Put plainly: Inhibition of LPS-induced NO production in ddY mouse peritoneal macrophages at 1 uM by Griess reagent method. It is filed as functional.
Data set [3] in a line: Cytotoxicity against ddY mouse macrophages after 20 hrs by MTT assay. The note with it: macrophage. In kind it is cell-based. For orientation: Tetrazolium assays rely on reduction of a dye to a coloured formazan, in cell work by metabolically active cells.
Data set [4] concerns Macrophage. Put plainly: Inhibition of LPS-induced NO production in ddY mouse peritoneal macrophages at 100 uM by Griess reagent method. It is filed as functional.
Data set [5] concerns Macrophage. The data set can be described thus: Inhibition of LPS-induced NO production in ddY mouse peritoneal macrophages at 10 uM by Griess reagent method. It is filed as functional.
The subject of data set [6] is Macrophage. Put plainly: Inhibition of LPS-induced NO production in ddY mouse peritoneal macrophages at 30 uM by Griess reagent method. In kind it is functional.
The test system of data set [7] is Macrophage. Put plainly: Inhibition of LPS-induced NO production in ddY mouse peritoneal macrophages by Griess reagent method. It is filed as functional, cell-based.

A word on the inhibition: it is the relative decrease from the control value, in per cent. The IC50 is the concentration that gives 50% inhibition. Low values mean inhibition by little substance, high ones a need for much substance. Regarding `Oc1ccc(CCCC[C@@H](O)CCc2ccc(O)cc2)cc1`, in data set [1], the inhibition at 3 µM was found to be 1.3%. Also, the inhibition at 1 µM in data set [2] is -1.3%. The Activity entry in data set [3] is “Non-toxic”. For the same compound, the inhibition at 100 µM in data set [4] is 67.2%. Besides, the inhibition at 10 µM in data set [5] is -1.1%. Further, the inhibition at 30 µM in data set [6] is 10.7%. This compound also gave a half-maximal inhibitory concentration (IC50) in data set [7] of 73 µM.

For the compound `Oc1ccc2cc1Oc1ccc(cc1)CC[C@H](O)CCCC2` [ACEROGENIN A], in data set [1], the inhibition at 3 µM stood at 5.8%. Besides, the inhibition at 1 µM in data set [2] stood at 6.7%. Besides, the Activity result in data set [3] is on record as “Non-toxic”. Also, the inhibition at 100 µM in data set [4] came to 61.4%. In data set [5], the inhibition at 10 µM turned out to be 11.6%. Also, the inhibition at 30 µM in data set [6] amounted to 22.2%. The same compound returned a 50% inhibitory concentration (IC50) in data set [7] of 74 µM.

Consider `Oc1ccc2cc1Oc1ccc(cc1)CCCC[C@H](O)CC2` [ACEROGENIN B], for which the inhibition at 3 µM in data set [1] was -0.5%. The inhibition at 1 µM in data set [2] is 1.9%. For the same compound, the Activity result in data set [3] is on record as “Non-toxic”. Besides, the inhibition at 100 µM in data set [4] was 54.1%. For the same compound, the inhibition at 10 µM in data set [5] was -0.2%. The inhibition at 30 µM in data set [6] was found to be 17.6%. For the same compound, the half-maximal inhibitory concentration (IC50) in data set [7] worked out at 88 µM.

With `O=C1CCCCc2ccc(O)c(c2)-c2cc(ccc2O)CC1` [ACEROGENIN E], the inhibition at 3 µM in data set [1] is 3.3%. The inhibition at 1 µM in data set [2] amounted to 0.1%. Moreover, the Activity entry in data set [3] was “Non-toxic”. Also, in data set [4], the inhibition at 100 µM came to 81.2%. Moreover, the inhibition at 10 µM in data set [5] is 13.6%. In addition, in data set [6], the inhibition at 30 µM stood at 59.4%. In data set [7], this compound had an IC50 of 24 µM.

As for `Oc1ccc2cc1-c1cc(ccc1O)CCC(O)CCCC2` (stereo not given) [ACEROGENIN K], in data set [1], the inhibition at 3 µM amounted to 2.1%. Further, in data set [2], the inhibition at 1 µM came to 6.6%. The Activity entry in data set [3] is reported as “Non-toxic”. The inhibition at 100 µM in data set [4] came to 91.3%. The inhibition at 10 µM in data set [5] came to 24.3%. For the same compound, in data set [6], the inhibition at 30 µM is 56.6%. In addition, the IC50 in data set [7] amounted to 25 µM.
